Assay results from US20240385182A1, “MASKED FLUOROGENIC LIPID COMPOUNDS, LIPID PARTICLES COMPRISING THE SAME, AND METHODS OF USE THEREOF” (Rutgers, The State University of New Jersey, priority 2023, published 2024).

Key:
[1] = Photophysical characterization of probes and uncaged forms (relative fluorescence quantum yield, extinction coefficient, brightness); format: physicochemical; conditions: for Relative Brightness: Table 3; for Brightness: in M⁻¹·cm⁻¹ (unit assumed)
In short: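 Relative fluorescence quantum yields of caged probes and uncaged forms, referenced to coumarin 343 (ΦF 0.63 in ethanol) for triazole-coumarins and fluorescein (ΦF 0.79 in ethanol) for triazole-fluoresceins. Measured in Tris 50 mM, pH 7.5; coumarin largely aryloxide (TEG-TC pKa 7.1±0.1 by UV-Vis).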

[2] = Confocal imaging of H2S-sensing giant vesicles; conditions: GVs with POPC, POPG, cholesterol; H2S (500 μM) over 1 hour
Text: FIGS. 14A-14B: giant vesicles (GVs) that can sense reductive (FIG. 14A) or oxidative (FIG. 14B) environments. Confocal images acquired for H2S-sensing GV at 405/475 nm (ex/em) (FIG. 14A) and H2O2 sensing GV at 490/520 nm (ex/em) (FIG. 14B). Lipid compositions of GVs: POPC, POPG, cholesterol, and DPPC-TC-H2S (48:21:30:1 molar ratio; FIG. 14A); and POPC, POPG, cholesterol, and DPPC-TF-H2O2 (48.5:21:30:0.5; FIG. 14B). To label vesicle membranes, Liss-Rhod PE dye (563/580 nm) was introduced to the lipid mixture at an insignificant molar ratio (0.1 mol %). Concentrations of RSS and ROS were set to 500 and 100 μM, respectively. Scale bar=5 μm.
The redox sensing abilities of giant vesicles (GVs) comprising DPPC-TC-H2S or DPPC-TF-H2O2 were investigated. In most biomimetic systems that rely on compartmentalization, physical membrane boundaries are comprised of phospholipids and cholesterol. These lipid self-assemblies have dimensional properties (1-30 μm in diameter) relevant to those of a mammalian plasma membrane (10-100 μm), display physical characteristics feasible for confocal fluorescence imaging, and are conveniently utilized for bottom-up construction of biomimetic protocells. […]
The vesicle size distribution was analyzed by dynamic light scattering (DLS), confirming the presence of GVs. […]

[3] = Specificity of TEG-TF-H2O2 against other ROS; conditions: ·OH 100 μM, 2 hours
Description: (§1) The redox-specificities of the non-amphiphilic probes, TEG-TC-H2S or TEG-TF-H2O2, were assessed by subjecting them to various RSS or ROS (FIGS. 13A-13B). Change in fluorescence intensity following excitation of each sample containing the respective probe was measured over 120 minutes of incubation and presented based on the signal-to-background ratio F/F0, where F and F0 are defined as the fluorescence with and without the redox species. The F/F0 of the untreated samples were set to 1 for comparisons. […] Samples containing TEG-TF-H2O2 and treated with 100 μM H2O2 presented a steady fluorescence enhancement within 2 hours, resulting in 4.4-fold higher fluorescence than those of the untreated samples (FIG. 13B).
(§2) The specificity of TEG-TC-H2S toward H2S was evaluated by comparing its reactivity against different RSS, cysteine (Cys), glutathione (GSH), sulfite (SO3^2−), and thiosulfate (S2O3^2−). At 1 mM initial concentration and a total incubation time of 2 hours, these sulfur species induced an increase in coumarin fluorescence by less than 25% compared to the untreated sample (FIG. 13A). […] The specificity of TEG-TF-H2O2 toward H2O2 was also assessed, by incubating the samples containing TEG-TF-H2O2 with 100 μM either hydroxyl radical (·OH), nitric oxide (NO), or superoxide radical (O2·^−) for 2 hours. […]

[4] = Fluorescence activation and LoD of TEG-TF-H2O2 with H2O2 in Tris buffer
Description: FIGS. 13A-13D: specificity (FIGS. 13A-13B) and limit of detection (LoD) (FIGS. 13C-13D) of TEG-TC-H2S and TEG-TF-H2O2. LoD measurements for the probes TEG-TC-H2S (390/475 nm) and TEG-TF-H2O2 (485/525 nm) were performed in Tris buffer (50 mM, pH 7.5). Error bars represent the standard deviation; n=3. Single-tailed Student's t test: *, P<0.05; **, P<0.01; ***, P<0.001; ****, P<0.0001.
as §1
as §2, with “hours. Among these three reactive oxygen species, ·OH induced the highest fluorescence increase (2.2-fold), which was lower than that for H2O2 (4.4-fold). The relatively low yet observable reactivity of ·OH may have been due, in large part, to the residual unreacted H2O2 used for generating ·OH.” for “hours.”

Structure (SMILES)	Emmax [1]	Exmax [1]	Ext. Coeff. [1]	Relative Brightness ([1]; brightness compared to that of DPPC-TC-H2S)	Brightness [1]	Quantum Yield (relative fluorescence quantum yield ΦFrel) ([1]; standard coumarin 343)	GV fluorescence [2]	fluorescence increase [3]	Relative Brightness ([1]; brightness compared to that of DPPC-TF-H2O2)	Quantum Yield (relative fluorescence quantum yield ΦFrel) ([1]; standard fluorescein)	fluorescence compared to untreated samples ([4]; 100 μM H2O2, 2 hours, Tris pH 7.5)	LoD ([4]; minimum H2O2 concentration at which F is statistically higher than F0, 485/525 nm, Tris 50 mM pH 7.5)	fluorescence increase of the untreated sample compared to the fluorescence at 1 min (possible hydrolysis) ([4]; no redox species, pH 7.5, 120 minutes)
CCCCCCCCCCCCCCCC(=O)OCC(COP(=O)([O-])OCC[N+](C)(C)Cc1cn(-c2cc3ccc(OCc4ccc(N=[N+]=[N-])cc4)cc3oc2=O)nn1)OC(=O)CCCCCCCCCCCCCCC (racemic) [DPPC-TC-H2S]	473.5 nm	396.5 nm	24111 M⁻¹ cm⁻¹	1.0	72	0.03	significant increase in fluorescence	–	–	–	–	–	–
CC1(C)OB(c2ccc(COC(=O)Oc3ccc4c(c3)Oc3cc(OC(=O)OCc5ccc(B6OC(C)(C)C(C)(C)O6)cc5)ccc3C43OC(=O)c4cc(-n5cc(COCCOCCOCCO)nn5)ccc43)cc2)OC1(C)C [TEG-TF-H2O2]	526.0 nm	492.0 nm	13429 M⁻¹ cm⁻¹	–	537	–	–	2.2 fold	2.5	0.04	4.4 fold	10 µM	277%
